Test results as given in article PMC12155096 (International Journal of Molecular Sciences, 2025).

Target: human CYP2C19 (Homo sapiens, UniProt P33261)
Assay: not given
Settings: not given

human CYP2C19, sequence (P33261 whole entry): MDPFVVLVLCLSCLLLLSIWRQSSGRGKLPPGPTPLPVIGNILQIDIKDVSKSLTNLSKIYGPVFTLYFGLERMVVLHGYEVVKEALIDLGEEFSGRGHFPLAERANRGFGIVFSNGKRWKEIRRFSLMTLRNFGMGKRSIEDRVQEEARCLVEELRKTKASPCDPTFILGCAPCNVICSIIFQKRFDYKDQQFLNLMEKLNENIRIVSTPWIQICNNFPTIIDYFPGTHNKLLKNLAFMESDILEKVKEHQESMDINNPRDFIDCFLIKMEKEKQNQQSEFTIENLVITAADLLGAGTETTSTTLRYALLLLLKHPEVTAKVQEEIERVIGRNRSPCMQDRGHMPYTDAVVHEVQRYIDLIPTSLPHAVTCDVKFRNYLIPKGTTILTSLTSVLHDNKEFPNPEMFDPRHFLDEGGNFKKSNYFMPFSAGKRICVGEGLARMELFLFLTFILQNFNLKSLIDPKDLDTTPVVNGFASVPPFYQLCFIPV

Compound	CYP2C19 Efficacy	IC50 [µM]	CYP2C19 IC50 (half-maximal inhibitory concentration)	CYP2C19 Efficacy (in parenthesis)
CCOC(=O)c1ccc(OC(=O)CCCCCN=C(N)N)cc1.CS(=O)(=O)O [Gabexate mesilate]	10.33 ± 4.77 (-82 ± 30) %	10.3		
CC[C@H]1C[C@@H]2C[C@H]3c4[nH]c5ccc(OC)cc5c4CCN(C2)[C@@H]13.Cl [Ibogaine hydrochloride]		83.1		
CC(C)C[C@H]1[C@@H](c2ccccc2)OC(=O)N1CCCN1CCCCCC1.Cl [Ipenoxazone hydrochloride]		2.3		
Cc1oc(=O)oc1COC(=O)[C@@H]1N2C(=O)[C@@H](NC(=O)[C@H](N)c3ccccc3)[C@H]2SC1(C)C.Cl [Lenampicillin hydrochloride]			Inactive	
O=S(=O)([O-])C(F)(F)C(F)(F)C(F)(F)C(F)(F)C(F)(F)C(F)(F)C(F)(F)C(F)(F)F.[Li+] [Lithium perfluorooctane sulfonate]		86.1		
CN1[C@@H]2CCC(C)(C)[C@H]1C[C@H](OC(=O)C(O)(c1cccs1)c1cccs1)C2 [Mazaticol]			Inactive	
CCOC(=O)c1c(C)n(C)c2ccc(O)cc12 [Mecarbinate]		7.23		
[Cl][Hg][Cl] [Mercuric chloride]		0.77		
CC(=O)[O-].CC(=O)[O-].[Hg+2] [Mercury(II) acetate]		0.91		0.91 ± 0.47 (-137 ± 5) %
[I][Hg][I] [Mercury(II) iodide]		1.04		
COc1cc(Cl)ccc1Oc1ccc(Cl)cc1Cl [Methyl triclosan]		0.72		
COC(=O)c1cncn1C(C)c1ccccc1.Cl (centres unmarked) [Metomidate hydrochloride]		4.05		

Target: human CYP2D6 (Homo sapiens, UniProt P10635)
Assay: not given
Settings: not given

human CYP2D6, sequence (P10635 whole entry): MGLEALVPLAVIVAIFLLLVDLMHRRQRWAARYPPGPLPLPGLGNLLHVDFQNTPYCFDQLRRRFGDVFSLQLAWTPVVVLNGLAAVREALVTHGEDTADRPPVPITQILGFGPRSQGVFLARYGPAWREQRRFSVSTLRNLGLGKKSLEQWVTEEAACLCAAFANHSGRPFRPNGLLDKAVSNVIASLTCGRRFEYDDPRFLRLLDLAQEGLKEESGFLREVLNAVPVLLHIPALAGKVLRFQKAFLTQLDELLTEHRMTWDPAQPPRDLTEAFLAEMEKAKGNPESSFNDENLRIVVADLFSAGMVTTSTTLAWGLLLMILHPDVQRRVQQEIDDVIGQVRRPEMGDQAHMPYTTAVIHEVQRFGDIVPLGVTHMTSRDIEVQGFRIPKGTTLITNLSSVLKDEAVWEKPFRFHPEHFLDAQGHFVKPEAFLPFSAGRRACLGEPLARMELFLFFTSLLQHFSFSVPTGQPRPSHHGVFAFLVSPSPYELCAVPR

Compound	AC50 [µM]	CYP2D6 Efficacy	CYP2D6 IC50 (half-maximal inhibitory concentration)	IC50 [µM]	CYP2D6 Efficacy (in parenthesis)	CYP2D6 IC50
CCOC(=O)c1ccc(OC(=O)CCCCCN=C(N)N)cc1.CS(=O)(=O)O [Gabexate mesilate]	0.27	0.27 ± 0.04 (-102 ± 4) %				
CC[C@H]1C[C@@H]2C[C@H]3c4[nH]c5ccc(OC)cc5c4CCN(C2)[C@@H]13.Cl [Ibogaine hydrochloride]		0.76 ± 0.1 (-105 ± 7) %				
CC(C)C[C@H]1[C@@H](c2ccccc2)OC(=O)N1CCCN1CCCCCC1.Cl [Ipenoxazone hydrochloride]		0.44 ± 0.1 (-105 ± 4) %				
Cc1oc(=O)oc1COC(=O)[C@@H]1N2C(=O)[C@@H](NC(=O)[C@H](N)c3ccccc3)[C@H]2SC1(C)C.Cl [Lenampicillin hydrochloride]			Inactive			
O=S(=O)([O-])C(F)(F)C(F)(F)C(F)(F)C(F)(F)C(F)(F)C(F)(F)C(F)(F)C(F)(F)F.[Li+] [Lithium perfluorooctane sulfonate]			Inactive			
CN1[C@@H]2CCC(C)(C)[C@H]1C[C@H](OC(=O)C(O)(c1cccs1)c1cccs1)C2 [Mazaticol]				14.4		
CCOC(=O)c1c(C)n(C)c2ccc(O)cc12 [Mecarbinate]				17.9		
[Cl][Hg][Cl] [Mercuric chloride]				1.61		
CC(=O)[O-].CC(=O)[O-].[Hg+2] [Mercury(II) acetate]				1.08	1.08 ± 0.07 (-72 ± 4) %	
[I][Hg][I] [Mercury(II) iodide]				1.67		
COc1cc(Cl)ccc1Oc1ccc(Cl)cc1Cl [Methyl triclosan]						Inactive
COC(=O)c1cncn1C(C)c1ccccc1.Cl (centres unmarked) [Metomidate hydrochloride]				5.65		

Target: Photinus pyralis (firefly) luciferase (Photinus pyralis, UniProt P08659)
Assay: biochemical
Assay type: biochemical
Settings: not given

Photinus pyralis (firefly) luciferase, sequence (P08659 whole entry): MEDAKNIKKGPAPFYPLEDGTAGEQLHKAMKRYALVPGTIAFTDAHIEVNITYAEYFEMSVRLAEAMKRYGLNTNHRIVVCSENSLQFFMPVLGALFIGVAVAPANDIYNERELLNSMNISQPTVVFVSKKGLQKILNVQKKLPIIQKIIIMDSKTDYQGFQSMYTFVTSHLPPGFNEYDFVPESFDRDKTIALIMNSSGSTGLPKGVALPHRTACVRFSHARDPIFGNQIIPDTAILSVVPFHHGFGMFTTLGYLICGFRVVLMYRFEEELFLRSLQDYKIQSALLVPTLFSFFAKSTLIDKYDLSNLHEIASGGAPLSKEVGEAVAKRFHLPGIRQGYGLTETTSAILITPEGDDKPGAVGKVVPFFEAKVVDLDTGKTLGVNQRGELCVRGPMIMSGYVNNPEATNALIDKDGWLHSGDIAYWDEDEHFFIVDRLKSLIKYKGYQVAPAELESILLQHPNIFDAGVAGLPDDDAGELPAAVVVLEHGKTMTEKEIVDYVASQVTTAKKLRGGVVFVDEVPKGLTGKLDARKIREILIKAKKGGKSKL

Compound	Luciferase IC50 (half-maximal inhibitory concentration)	Luciferase IC50	Luciferase Efficacy (in parenthesis)
CCOC(=O)c1ccc(OC(=O)CCCCCN=C(N)N)cc1.CS(=O)(=O)O [Gabexate mesilate]	Inactive		
CC[C@H]1C[C@@H]2C[C@H]3c4[nH]c5ccc(OC)cc5c4CCN(C2)[C@@H]13.Cl [Ibogaine hydrochloride]	Inactive		
CC(C)C[C@H]1[C@@H](c2ccccc2)OC(=O)N1CCCN1CCCCCC1.Cl [Ipenoxazone hydrochloride]		Inactive	
Cc1oc(=O)oc1COC(=O)[C@@H]1N2C(=O)[C@@H](NC(=O)[C@H](N)c3ccccc3)[C@H]2SC1(C)C.Cl [Lenampicillin hydrochloride]	Inactive		
O=S(=O)([O-])C(F)(F)C(F)(F)C(F)(F)C(F)(F)C(F)(F)C(F)(F)C(F)(F)C(F)(F)F.[Li+] [Lithium perfluorooctane sulfonate]	Inactive		
CN1[C@@H]2CCC(C)(C)[C@H]1C[C@H](OC(=O)C(O)(c1cccs1)c1cccs1)C2 [Mazaticol]	Inactive		
CCOC(=O)c1c(C)n(C)c2ccc(O)cc12 [Mecarbinate]	Inactive		
CC(=O)[O-].CC(=O)[O-].[Hg+2] [Mercury(II) acetate]			6.84 ± 0.45 (-85 ± 7) %
COC(=O)c1cncn1C(C)c1ccccc1.Cl (centres unmarked) [Metomidate hydrochloride]	Inactive		

Same assay, conditions: read-out: Luciferase IC50

Compound	IC50 [µM]
[Cl][Hg][Cl] [Mercuric chloride]	11
[I][Hg][I] [Mercury(II) iodide]	5.25
COc1cc(Cl)ccc1Oc1ccc(Cl)cc1Cl [Methyl triclosan]	48.9

Same assay, conditions: read-out: Luciferase IC50 (half-maximal inhibitory concentration)

Compound	IC50 [µM]
CC(=O)[O-].CC(=O)[O-].[Hg+2] [Mercury(II) acetate]	6.84

Target: human CYP2C9 (Homo sapiens, UniProt P11712)
Assay: not given
Settings: not given

human CYP2C9, sequence (P11712 whole entry): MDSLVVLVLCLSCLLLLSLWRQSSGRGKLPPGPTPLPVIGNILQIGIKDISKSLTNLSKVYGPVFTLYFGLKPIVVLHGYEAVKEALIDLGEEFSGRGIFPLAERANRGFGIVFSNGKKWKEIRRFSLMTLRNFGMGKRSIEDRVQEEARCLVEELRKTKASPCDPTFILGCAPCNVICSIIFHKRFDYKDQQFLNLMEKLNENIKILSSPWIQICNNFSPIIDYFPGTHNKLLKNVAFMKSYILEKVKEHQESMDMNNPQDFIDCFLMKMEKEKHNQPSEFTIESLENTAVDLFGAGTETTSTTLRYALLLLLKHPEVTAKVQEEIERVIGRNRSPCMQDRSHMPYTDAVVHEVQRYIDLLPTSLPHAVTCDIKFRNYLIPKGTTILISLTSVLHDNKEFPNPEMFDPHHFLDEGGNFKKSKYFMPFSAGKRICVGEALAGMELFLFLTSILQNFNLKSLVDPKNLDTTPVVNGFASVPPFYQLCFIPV

Compound	AC50 [µM]	CYP2C9 Efficacy	CYP2C9 IC50	IC50 [µM]	CYP2C9 IC50 (half-maximal inhibitory concentration)	CYP2C9 Efficacy (in parenthesis)
CCOC(=O)c1ccc(OC(=O)CCCCCN=C(N)N)cc1.CS(=O)(=O)O [Gabexate mesilate]	10.3	10.33 ± 4.77 (82 ± 30) %				
CC[C@H]1C[C@@H]2C[C@H]3c4[nH]c5ccc(OC)cc5c4CCN(C2)[C@@H]13.Cl [Ibogaine hydrochloride]		44.07 ± 15.72 (-45 ± 10) %				
CC(C)C[C@H]1[C@@H](c2ccccc2)OC(=O)N1CCCN1CCCCCC1.Cl [Ipenoxazone hydrochloride]			Inactive			
Cc1oc(=O)oc1COC(=O)[C@@H]1N2C(=O)[C@@H](NC(=O)[C@H](N)c3ccccc3)[C@H]2SC1(C)C.Cl [Lenampicillin hydrochloride]				41.3		
O=S(=O)([O-])C(F)(F)C(F)(F)C(F)(F)C(F)(F)C(F)(F)C(F)(F)C(F)(F)C(F)(F)F.[Li+] [Lithium perfluorooctane sulfonate]				0.48		
CN1[C@@H]2CCC(C)(C)[C@H]1C[C@H](OC(=O)C(O)(c1cccs1)c1cccs1)C2 [Mazaticol]					Inactive	
CCOC(=O)c1c(C)n(C)c2ccc(O)cc12 [Mecarbinate]				12.9		
[Cl][Hg][Cl] [Mercuric chloride]				0.47		
CC(=O)[O-].CC(=O)[O-].[Hg+2] [Mercury(II) acetate]				0.5		0.5 ± 0.06 (-104 ± 2) %
[I][Hg][I] [Mercury(II) iodide]				0.54		
COc1cc(Cl)ccc1Oc1ccc(Cl)cc1Cl [Methyl triclosan]				12		
COC(=O)c1cncn1C(C)c1ccccc1.Cl (centres unmarked) [Metomidate hydrochloride]				34		

Target: CYP3A4 (Homo sapiens, UniProt P08684)
Assay: not given
Settings: not given

CYP3A4, sequence (P08684 whole entry): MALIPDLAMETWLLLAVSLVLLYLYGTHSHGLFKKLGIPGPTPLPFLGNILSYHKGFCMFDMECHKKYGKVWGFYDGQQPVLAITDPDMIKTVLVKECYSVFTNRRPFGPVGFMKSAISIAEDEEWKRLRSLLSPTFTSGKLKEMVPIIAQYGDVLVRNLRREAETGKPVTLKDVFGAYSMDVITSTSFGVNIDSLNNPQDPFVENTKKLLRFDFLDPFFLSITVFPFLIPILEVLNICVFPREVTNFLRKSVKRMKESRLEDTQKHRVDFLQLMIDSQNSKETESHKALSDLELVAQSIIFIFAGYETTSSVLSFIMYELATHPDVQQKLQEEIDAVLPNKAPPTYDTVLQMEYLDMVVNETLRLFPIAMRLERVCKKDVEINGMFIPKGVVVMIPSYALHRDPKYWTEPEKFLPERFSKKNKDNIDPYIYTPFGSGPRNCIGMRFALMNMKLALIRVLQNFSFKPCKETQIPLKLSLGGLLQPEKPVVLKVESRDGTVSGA

Compound	AC50 [µM]	CYP3A4 IC50 (half-maximal inhibitory concentration)	IC50 [µM]	CYP3A4 Efficacy (in parenthesis)
CCOC(=O)c1ccc(OC(=O)CCCCCN=C(N)N)cc1.CS(=O)(=O)O [Gabexate mesilate]	21.2	21.25 ± 8.41 (37 ± 5) µM		
CC[C@H]1C[C@@H]2C[C@H]3c4[nH]c5ccc(OC)cc5c4CCN(C2)[C@@H]13.Cl [Ibogaine hydrochloride]			32.5	
CC(C)C[C@H]1[C@@H](c2ccccc2)OC(=O)N1CCCN1CCCCCC1.Cl [Ipenoxazone hydrochloride]			0.88	
Cc1oc(=O)oc1COC(=O)[C@@H]1N2C(=O)[C@@H](NC(=O)[C@H](N)c3ccccc3)[C@H]2SC1(C)C.Cl [Lenampicillin hydrochloride]			0.62	
O=S(=O)([O-])C(F)(F)C(F)(F)C(F)(F)C(F)(F)C(F)(F)C(F)(F)C(F)(F)C(F)(F)F.[Li+] [Lithium perfluorooctane sulfonate]		Inactive		
CN1[C@@H]2CCC(C)(C)[C@H]1C[C@H](OC(=O)C(O)(c1cccs1)c1cccs1)C2 [Mazaticol]			0.22	
CCOC(=O)c1c(C)n(C)c2ccc(O)cc12 [Mecarbinate]			5.97	
[Cl][Hg][Cl] [Mercuric chloride]			2.25	
CC(=O)[O-].CC(=O)[O-].[Hg+2] [Mercury(II) acetate]			2.86	2.86 ± 0.53 (-93 ± 1) %
[I][Hg][I] [Mercury(II) iodide]			2.53	
COc1cc(Cl)ccc1Oc1ccc(Cl)cc1Cl [Methyl triclosan]			70.2	
COC(=O)c1cncn1C(C)c1ccccc1.Cl (centres unmarked) [Metomidate hydrochloride]			0.25	

Target: T1, human CYP1A2 (Homo sapiens, UniProt P05177)
T1 sequence (P05177 1-516): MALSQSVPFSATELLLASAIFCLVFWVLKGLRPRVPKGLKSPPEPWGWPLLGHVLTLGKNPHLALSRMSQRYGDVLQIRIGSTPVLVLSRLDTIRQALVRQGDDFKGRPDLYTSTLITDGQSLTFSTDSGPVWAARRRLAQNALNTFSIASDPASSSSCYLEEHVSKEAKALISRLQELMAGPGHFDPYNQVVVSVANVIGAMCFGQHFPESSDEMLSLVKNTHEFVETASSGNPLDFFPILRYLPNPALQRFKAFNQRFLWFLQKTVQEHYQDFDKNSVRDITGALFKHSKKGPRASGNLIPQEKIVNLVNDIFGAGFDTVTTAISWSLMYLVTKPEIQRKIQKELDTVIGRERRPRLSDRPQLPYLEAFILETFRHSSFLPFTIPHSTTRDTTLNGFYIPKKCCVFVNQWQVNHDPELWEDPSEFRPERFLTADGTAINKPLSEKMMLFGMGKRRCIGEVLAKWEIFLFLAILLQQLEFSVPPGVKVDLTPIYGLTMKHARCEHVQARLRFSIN
Assay: not given
Settings: not given

Compound	CYP1A2 Efficacy	IC50 [µM]	CYP1A2 IC50	CYP1A2 IC50 (half-maximal inhibitory concentration)	CYP1A2 Efficacy (in parenthesis)
CCOC(=O)c1ccc(OC(=O)CCCCCN=C(N)N)cc1.CS(=O)(=O)O [Gabexate mesilate]	20.14 ± 4.79 (-49 ± 20) %	20.1			
CC[C@H]1C[C@@H]2C[C@H]3c4[nH]c5ccc(OC)cc5c4CCN(C2)[C@@H]13.Cl [Ibogaine hydrochloride]		61.5			
CC(C)C[C@H]1[C@@H](c2ccccc2)OC(=O)N1CCCN1CCCCCC1.Cl [Ipenoxazone hydrochloride]			Inactive		
Cc1oc(=O)oc1COC(=O)[C@@H]1N2C(=O)[C@@H](NC(=O)[C@H](N)c3ccccc3)[C@H]2SC1(C)C.Cl [Lenampicillin hydrochloride]				Inactive	
O=S(=O)([O-])C(F)(F)C(F)(F)C(F)(F)C(F)(F)C(F)(F)C(F)(F)C(F)(F)C(F)(F)F.[Li+] [Lithium perfluorooctane sulfonate]				Inactive	
CN1[C@@H]2CCC(C)(C)[C@H]1C[C@H](OC(=O)C(O)(c1cccs1)c1cccs1)C2 [Mazaticol]				Inactive	
CCOC(=O)c1c(C)n(C)c2ccc(O)cc12 [Mecarbinate]		0.54			
[Cl][Hg][Cl] [Mercuric chloride]		5.66			
CC(=O)[O-].CC(=O)[O-].[Hg+2] [Mercury(II) acetate]		4.19			4.19 ± 0.75 (-100 ± 9) %
[I][Hg][I] [Mercury(II) iodide]		3.7			
COc1cc(Cl)ccc1Oc1ccc(Cl)cc1Cl [Methyl triclosan]		15.1			
COC(=O)c1cncn1C(C)c1ccccc1.Cl (centres unmarked) [Metomidate hydrochloride]				Inactive	
